From patent US8546377B2 (AbbVie Inc., priority 2009, dated 2013) come the findings set out here.

Where two headings read alike, the source gives them in different places.

For one experiment, the target named is T1, 5HT2B receptors (Homo sapiens, UniProt P41595).
T1 construct: expressed in transfected cells; host or cells: CHO-K1 cells
Briefly: Human 5-HT2B functional assay in CHO-K1 cells (calcium flux, FLIPR). Type of experiment: cell-based. On the procedure:
(§1) (iii) Human 5-HT2C and 5-HT2B Functional Assay in CHO-K1 Cells
(§2) CHO-K1 cells over-expressing 5HT2C or 5HT2B receptors were grown in 1272 cm^2 flasks to 70-80% confluency in UltraCHO media supplemented with 1% dialyzed fetal bovine serum (FBS), 250 μg/mL zeocin, 100 U/mL penicillin/streptomycin, and 400 μg/mL geneticin. The cells were dissociated from the flasks using 0.05% trypsin, resuspended in freezing media and stored in liquid nitrogen until use. Calcium flux experiments were done using frozen cells. The cells were diluted in media containing 1% dialyzed FBS and 100 U/mL penicillin/streptomycin and plated into 384-well poly-D-Lysine coated plates (15,000 cells/well). Then the plates were incubated overnight in a cell incubator at 37° C., 5% CO2. On the next day, the growth media was replaced with media without FBS and further incubated overnight. On day three, the changes in intracellular Ca^2+ were determined using calcium sensitive fluorescent dye, Ca4 (MDS Analytical Technologies, Sunnyvale, Calif.) by loading 15 μL of diluted dye with 2.5 mM probenecid into the cells containing media and incubated at room temperature for 60 minutes in dark.
(§3) Fluorescence measurements were read at 25° C. at an excitation wavelength of 480 nm and an emission wavelength of 530 nm in FLIPR (MDS). Baseline fluorescence was measured for the first 10 seconds and then 15 μL of 4× concentrations of serotonin/test compounds was added to the cell plate. The fluorescence intensity was captured every second for the first 1 minute followed by every 5 seconds for an additional 2 minutes. The increase in fluorescent response was determined and was normalized to the response of serotonin. The concentration response of compounds was done from a starting concentration of 10 μM, 1:10 dilution across 6 wells with a final dimethyl sulfoxide concentration of 0.2% and was fitted using a 4-parameter logistic equation. The concentration at which a compound exerts half its maximal effect was named as ‘effective concentration 50’ or ‘EC50’.
(§4) Emax is the maximum functional response or efficacy expressed as a percentage relative to the effect of serotonin.
On the technique in general: A change in cytosolic calcium serves as a functional read-out for many receptors and channels.

For the next experiment, the target named is T2, 5HT2C receptors (Homo sapiens, UniProt P28335).
T2 sequence (P28335 33-458): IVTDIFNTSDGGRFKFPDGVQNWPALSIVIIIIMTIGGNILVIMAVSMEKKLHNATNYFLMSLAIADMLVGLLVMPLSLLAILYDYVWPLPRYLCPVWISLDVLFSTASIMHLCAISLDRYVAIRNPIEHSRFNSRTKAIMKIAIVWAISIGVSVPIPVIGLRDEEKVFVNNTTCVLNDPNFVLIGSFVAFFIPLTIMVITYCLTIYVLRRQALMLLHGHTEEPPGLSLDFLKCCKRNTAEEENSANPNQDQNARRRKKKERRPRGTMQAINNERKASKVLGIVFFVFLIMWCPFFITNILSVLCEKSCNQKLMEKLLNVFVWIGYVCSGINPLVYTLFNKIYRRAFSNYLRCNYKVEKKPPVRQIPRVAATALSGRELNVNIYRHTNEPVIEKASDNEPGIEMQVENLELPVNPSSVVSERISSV
Briefly: Human 5-HT2C functional assay in CHO-K1 cells (calcium flux, FLIPR). Details: expressed in transfected cells; host or cells: CHO-K1 cells. In kind it is cell-based. How it is done: as §1, §2, §3, §4

[1] abbreviates: CHO-K1, read-out: Emax (%), 5-HT2c Agonist Activity, CHO-K1 cells, percentage relative to the effect of serotonin.
The mark [2] stands for this setting: CHO-K1 cells over-expressing 5HT2B, calcium flux, read-out: EC50 (μM), 5-HT2B Agonist Activity.
Setting [3] is: CHO-K1 cells over-expressing 5HT2C, calcium flux, read-out: EC50 (μM), 5-HT2c Agonist Activity.
Where [4] appears, read: CHO-K1 cells, percentage relative to the effect of serotonin, read-out: Emax (%), 5-HT2c Agonist Activity.
Setting [5] is: CHO-K1 cells, percentage relative to the effect of serotonin, read-out: Emax (%), 5-HT2B Agonist Activity.
The mark [6] stands for this setting: CHO-K1, read-out: Emax (%), 5-HT2B Agonist Activity.

T1 sequence (P41595 whole entry): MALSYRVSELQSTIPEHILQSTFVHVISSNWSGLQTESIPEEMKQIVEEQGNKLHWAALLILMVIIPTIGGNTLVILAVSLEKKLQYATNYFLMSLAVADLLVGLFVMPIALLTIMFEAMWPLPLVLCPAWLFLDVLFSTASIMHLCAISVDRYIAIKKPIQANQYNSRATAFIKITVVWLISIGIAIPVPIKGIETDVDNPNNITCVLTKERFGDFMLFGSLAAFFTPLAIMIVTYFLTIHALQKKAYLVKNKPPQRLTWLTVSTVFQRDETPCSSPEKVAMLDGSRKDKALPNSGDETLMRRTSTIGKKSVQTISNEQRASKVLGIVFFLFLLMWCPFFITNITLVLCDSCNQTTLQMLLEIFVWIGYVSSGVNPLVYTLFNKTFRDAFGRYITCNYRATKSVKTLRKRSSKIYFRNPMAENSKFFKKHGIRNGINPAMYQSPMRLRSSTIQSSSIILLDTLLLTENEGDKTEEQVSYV

On to `c1cc(-c2ccncc2)c2c(c1)N1CCNC[C@@H]1CCO2` [Example 247, (4aS)-8-(pyridin-4-yl)-2,3,4,4a,5,6-hexahydro-1H-pyrazino[2,1-d][1,5]benzoxazepine], for which the half-maximal effective concentration (EC50) is greater than 10 µM at 5HT2B receptors and 0.007 µM on 5HT2C receptors. Also, on 5HT2C receptors (setting [1]), the Emax was 85%.
On to `Oc1cccc(-c2ccc3c(c2)N2CCNC[C@@H]2CCO3)c1` [Example 201, 3-[(4aS)-2,3,4,4a,5,6-hexahydro-1H-pyrazino[2,1-d][1,5]benzoxazepin-10-yl]phenol], for which the results for the EC50 on 5HT2B receptors (setting [2]) and on 5HT2C receptors (setting [3]) were greater than 10 µM and 0.2 µM, respectively. The Emax at 5HT2C receptors (setting [4]) is greater than 120%.
`Cn1cc(-c2ccc3c(c2)N2CCNCC2CC(=O)N3)cn1` (centres unmarked) [Example 60, 10-(1-methyl-1H-pyrazol-4-yl)-1,2,3,4,4a,5-hexahydropyrazino[1,2-a][1,5]benzodiazepin-6(7H)-one]: the concentration giving a half-maximal response (EC50) was 3 µM at 5HT2B receptors (setting [2]) and 0.4 µM at 5HT2C receptors (setting [3]). For the same compound, the Emax on 5HT2B receptors (setting [5]) is 50%; at 5HT2C receptors (setting [4]), greater than 120%.
As for `FC(F)(F)c1ccc2c(c1)OCC[C@H]1CNCCN21` [Example 216, (4aS)-9-(trifluoromethyl)-2,3,4,4a,5,6-hexahydro-1H-pyrazino[2,1-d][1,5]benzoxazepine], the EC50 on 5HT2B receptors (setting [2]) is greater than 10 µM; on 5HT2C receptors (setting [3]), 0.07 µM. Also, the Emax on 5HT2C receptors (setting [4]) was determined as 55%.
In the same order, the values of `O=C1CC2CNCCN2c2cc(-c3cccc(-c4ccccc4)c3)ccc2N1` (centres unmarked) [Example 59, 10-(biphenyl-3-yl)-1,2,3,4,4a,5-hexahydropyrazino[1,2-a][1,5]benzodiazepin-6(7H)-one] are greater than 10 µM, 0.04 µM and greater than 120%.
In the same order, the values of `CS(=O)(=O)c1cccc(-c2cccc3c2OCC[C@H]2CNCCN32)c1` [Example 239, (4aS)-8-[3-(methylsulfonyl)phenyl]-2,3,4,4a,5,6-hexahydro-1H-pyrazino[2,1-d][1,5]benzoxazepine] are greater than 10 µM, 0.04 µM and 105%.
Regarding `O=C1CC2CNCCN2c2ncccc2N1` (centres unmarked) [Example 150, 7,7a,8,9,10,11-hexahydropyrazino[1,2-d]pyrido[3,2-b][1,4]diazepin-6(5H)-one], the figures for the EC50 at 5HT2B receptors (setting [2]) and on 5HT2C receptors (setting [3]) were greater than 10 µM and 0.2 µM, respectively. Also, the Emax at 5HT2C receptors (setting [1]) is greater than 120%.
For `O=C1C[C@H]2CNCCN2c2cc(OCCc3cccc(Cl)c3)ccc2N1` [Example 175, (4aS)-10-[2-(3-chlorophenyl)ethoxy]-1,2,3,4,4a,5-hexahydropyrazino[1,2-a][1,5]benzodiazepin-6(7H)-one], the EC50 on 5HT2B receptors (setting [2]) was 0.5 µM; on 5HT2C receptors (setting [3]), 0.001 µM. The Emax at 5HT2B receptors (setting [5]) was 20%; on 5HT2C receptors (setting [4]) it was greater than 120%.
On to `c1cncc(-c2cccc3c2OCC[C@H]2CNCCN32)c1` [Example 248, (4aS)-8-(pyridin-3-yl)-2,3,4,4a,5,6-hexahydro-1H-pyrazino[2,1-d][1,5]benzoxazepine], for which the concentration giving a half-maximal response (EC50) is greater than 10 µM at 5HT2B receptors and 0.0007 µM on 5HT2C receptors. Moreover, the Emax on 5HT2C receptors (setting [1]) was 85%.
For `C[C@@H]1C[C@H]2CNCCN2c2ccccc2O1` (single isomer, unassigned) [Example 252], the EC50 at 5HT2B receptors came out at 0.06 µM; at 5HT2C receptors it was 0.006 µM. Besides, the Emax at 5HT2B receptors (setting [6]) came to 40%; on 5HT2C receptors (setting [1]), 105%.
`O=C1CC2CNCCN2c2cc(-c3cccc4[nH]ccc34)ccc2N1` (centres unmarked) [Example 68, 10-(1H-indol-4-yl)-1,2,3,4,4a,5-hexahydropyrazino[1,2-a][1,5]benzodiazepin-6(7H)-one]: the EC50 on 5HT2B receptors (setting [2]) is greater than 10 µM; at 5HT2C receptors (setting [3]), 0.09 µM. The Emax at 5HT2C receptors (setting [4]) is greater than 120%.
Regarding `Fc1ccc2c(c1)OCC[C@@H]1CNCCN21` [Example 256, (4aR)-9-fluoro-2,3,4,4a,5,6-hexahydro-1H-pyrazino[2,1-d][1,5]benzoxazepine], the EC50 came to 0.06 µM on 5HT2B receptors and 0.001 µM on 5HT2C receptors. Also, the maximal effect (Emax) came to 80% at 5HT2B receptors (setting [6]) and 90% at 5HT2C receptors (setting [1]).
As for `Brc1ccc2c(c1)NCC[C@H]1CNCCN21` [Example 54, (4aS)-9-bromo-1,2,3,4,4a,5,6,7-octahydropyrazino[1,2-a][1,5]benzodiazepine], the EC50 on 5HT2B receptors is greater than 10 µM; on 5HT2C receptors, 0.07 µM. Besides, at 5HT2C receptors (setting [1]), the Emax was 110%.
In the same order, the values of `O=C1C[C@H]2CNCCN2c2ccc(Cl)cc2N1` [Example 55, (4aS)-9-chloro-1,2,3,4,4a,5-hexahydropyrazino[1,2-a][1,5]benzodiazepin-6(7H)-one] are greater than 10 µM, 0.02 µM and greater than 120%.
`O=C1CC2CNCCN2c2cc(COc3ccccc3F)ccc2N1` (centres unmarked) [Example 113, 10-[(2-fluorophenoxy)methyl]-1,2,3,4,4a,5-hexahydropyrazino[1,2-a][1,5]-benzodiazepin-6(7H)-one]: the EC50 on 5HT2B receptors (setting [2]) came to 0.2 µM; on 5HT2C receptors (setting [3]), 0.05 µM. In addition, the results for the maximum response (Emax) on 5HT2B receptors (setting [5]) and at 5HT2C receptors (setting [4]) were 50% and greater than 120%, respectively.
As to `CN1CCC2CNCCN2c2ccc(Cl)cc21` (centres unmarked) [Example 81, 9-chloro-7-methyl-1,2,3,4,4a,5,6,7-octahydropyrazino[1,2-a][1,5]benzodiazepine], the EC50 on 5HT2B receptors came out at 1 µM; on 5HT2C receptors it was 0.05 µM. Also, the maximal response (Emax) at 5HT2B receptors (setting [6]) was 20%; at 5HT2C receptors (setting [1]) it was greater than 120%.
As to `Clc1ccc2c(c1)N1CCNC[C@H]1CCO2` [Example 261, (4aR)-10-chloro-2,3,4,4a,5,6-hexahydro-1H-pyrazino[2,1-d][1,5]benzoxazepine], the EC50 at 5HT2B receptors turned out to be 0.03 µM; on 5HT2C receptors, 0.0004 µM. The Emax on 5HT2B receptors (setting [6]) is 70%; on 5HT2C receptors (setting [1]), 90%.
In the same order, the values of `[2H]c1cccc2c1OCC[C@H]1CNCCN21` [Example 254, (4aS)-(8-^2H)-2,3,4,4a,5,6-hexahydro-1H-pyrazino[2,1-d][1,5]benzoxazepine] are 0.09 µM, 0.005 µM, 35% and 115%.
For the compound `O=C1CC2CNCCN2c2cc(-c3cc4ccccc4s3)ccc2N1` (centres unmarked) [Example 75, 10-(1-benzothiophen-2-yl)-1,2,3,4,4a,5-hexahydropyrazino[1,2-a][1,5]benzodiazepin-6(7H)-one], the EC50 is greater than 10 µM on 5HT2B receptors (setting [2]) and 1 µM on 5HT2C receptors (setting [3]). Further, at 5HT2C receptors (setting [4]), the Emax was determined as 80%.
In the case of `FCCN1CCN2c3ccccc3OCC[C@@H]2C1` [Example 269, (4aR)-3-(2-fluoroethyl)-2,3,4,4a,5,6-hexahydro-1H-pyrazino[2,1-d][1,5]benzoxazepine], the Emax at 5HT2B receptors (setting [6]) worked out at 50%; at 5HT2C receptors (CHO-K1, read-out: Emax (%), 5-HT2c Agonist Activity), 90%. The concentration for a half-maximal effect (EC50) at 5HT2B receptors (setting [2]) stood at 0.6 µM; at 5HT2C receptors (setting [3]), 0.09 µM.
Turning to `O=C1C[C@@H]2CNCCN2c2cccc(F)c2N1` [Example 83, (4aR)-8-fluoro-1,2,3,4,4a,5-hexahydropyrazino[1,2-a][1,5]benzodiazepin-6(7H)-one], the concentration giving a half-maximal response (EC50) at 5HT2B receptors worked out at 1.05 µM; at 5HT2C receptors it was 0.763 µM. Further, the maximal response (Emax) on 5HT2B receptors (setting [6]) was 27%; at 5HT2C receptors (setting [1]) it was greater than 120%.
Turning to `C[C@@H](Oc1ccc2c(c1)N1CCNC[C@@H]1CC(=O)N2)c1cc(F)ccc1F` [Example 178, (4aS)-10-[(1R)-1-(2,5-difluorophenyl)ethoxy]-1,2,3,4,4a,5-hexahydropyrazino[1,2-a][1,5]benzodiazepin-6(7H)-one], the half-maximal effective concentration (EC50) at 5HT2B receptors (setting [2]) was 0.04 µM; at 5HT2C receptors (setting [3]), 0.001 µM. Further, the values for the maximum response (Emax) on 5HT2B receptors (setting [5]) and at 5HT2C receptors (setting [4]) were 45% and 100%, respectively.

The term EC50 denotes the concentration that produces a half-maximal response. As a reminder, the Emax is the greatest response seen or fitted, relative to the assay's reference.
